# Experimental data published in US20160346249A1 (priority 2012, published 2016).
# Values joined by “and” are separate entries in the source; they are usually repeats but may differ in a detail not shown here. Equal values may be shown once.
# Experiment: Single dose 300 mg / 450 mg pharmacokinetic, safety and tolerability study in healthy male and female subjects
# Settings: for Cmax / half-life / Tmax / AUC(0-t) / concentration at 0 h / concentration at 0.5 h / concentration at 1 h / concentration at 2 h / concentration at 3 h / concentration at 4 h / concentration at 6 h / concentration at 8 h / concentration at 10 h / concentration at 12 h / concentration at 18 h / concentration at 24 h / concentration at […]: human, plasma
smiles,measurement,setting,value
"O=C1NCC2(c3ccc(Cl)c(Cl)c3)CC12 (stereo not drawn) [EB-10101, 5-(3,4-dichloro-phenyl)-3-aza-bicyclo[3.1.0]hexan-2-one]",AUC24-∞ as share of total exposure,300 mg,38%
same,concentration at 24 hr as % of Cmax,300 mg,50%
same,ingested dose in urine as lactam (0-24 hr),300 mg,0.075%
same,AUC24-∞ as share of total exposure,450 mg,54%
same,concentration at 24 hr as % of Cmax,450 mg,65%
same,ingested dose in urine as lactam (0-24 hr),450 mg,0.067%
same,Cmax,"both, oral, 300 mg",2030 ng/mL
same,half-life,"both, oral, 300 mg, harmonic mean of half-life of lactam",14.3 h
same,Cmax,"both, oral, 450 mg",2950 ng/mL
same,Tmax,"both, oral, 450 mg",7.8 to 9 h
same,half-life,"both, oral, 450 mg, harmonic mean of half-life of lactam",19.8 h
same,AUC(0-t),"both, po, 300 mg",33300 ng·h/mL
same,Cmax,"both, po, 300 mg",2030 ng/mL
same,Tmax,"both, po, 300 mg",7.8 h
same,concentration at 0 h,"both, po, 300 mg",0 ng/mL
same,concentration at 0.5 h,"both, po, 300 mg",42.8 ng/mL
same,concentration at 1 h,"both, po, 300 mg",296 ng/mL
same,concentration at 2 h,"both, po, 300 mg",900 ng/mL
same,concentration at 3 h,"both, po, 300 mg",1410 ng/mL
same,concentration at 4 h,"both, po, 300 mg",1540 ng/mL
same,concentration at 6 h,"both, po, 300 mg",1690 ng/mL
same,concentration at 8 h,"both, po, 300 mg",1900 ng/mL
same,concentration at 10 h,"both, po, 300 mg",1830 ng/mL
same,concentration at 12 h,"both, po, 300 mg",1580 ng/mL
same,concentration at 18 h,"both, po, 300 mg",1390 ng/mL
same,concentration at 24 h,"both, po, 300 mg",1010 ng/mL
same,concentration at […],"both, po, 300 mg",1.52 ng/mL and 175 ng/mL and 473 ng/mL and 589 ng/mL
same,half-life,"both, po, 300 mg, t½ (Harmonic mean), single oral 300 mg DOV 21,947 HCl IR, N = 10",14.3 h
same,half-life,"both, po, 300 mg, t½, single oral 300 mg DOV 21,947 HCl IR, arithmetic mean, N = 10",15.4 h
same,AUC(0-t),"both, po, 450 mg",50700 ng·h/mL
same,Cmax,"both, po, 450 mg",2950 ng/mL
same,Tmax,"both, po, 450 mg",9 h
same,concentration at 0 h,"both, po, 450 mg",0 ng/mL
same,concentration at 0.5 h,"both, po, 450 mg",71 ng/mL
same,concentration at 1 h,"both, po, 450 mg",337 ng/mL
same,concentration at 2 h,"both, po, 450 mg",1330 ng/mL
same,concentration at 3 h,"both, po, 450 mg",1820 ng/mL
same,concentration at 4 h,"both, po, 450 mg",2160 ng/mL
same,concentration at 6 h,"both, po, 450 mg",2520 ng/mL
same,concentration at 8 h,"both, po, 450 mg",2670 ng/mL
same,concentration at 10 h,"both, po, 450 mg",2770 ng/mL
same,concentration at 12 h,"both, po, 450 mg",2620 ng/mL
same,concentration at 18 h,"both, po, 450 mg",2010 ng/mL
same,concentration at 24 h,"both, po, 450 mg",1920 ng/mL
same,concentration at […],"both, po, 450 mg",0 ng/mL and 184 ng/mL and 646 ng/mL and 807 ng/mL
same,half-life,"both, po, 450 mg, t½ (Harmonic mean), single oral 450 mg DOV 21,947 HCl IR, N = 10",19.8 h
same,half-life,"both, po, 450 mg, t½, single oral 450 mg DOV 21,947 HCl IR, arithmetic mean, N = 10",32.6 h
same,AUC(0-t),"female, po, 300 mg",37300 ng·h/mL
same,Cmax,"female, po, 300 mg",2320 ng/mL
same,Tmax,"female, po, 300 mg",9.2 h
same,concentration at 0 h,"female, po, 300 mg",0 ng/mL
same,concentration at 0.5 h,"female, po, 300 mg",22.8 ng/mL
same,concentration at 1 h,"female, po, 300 mg",188 ng/mL
same,concentration at 2 h,"female, po, 300 mg",760 ng/mL
same,concentration at 3 h,"female, po, 300 mg",1340 ng/mL
same,concentration at 4 h,"female, po, 300 mg",1600 ng/mL
same,concentration at 6 h,"female, po, 300 mg",1870 ng/mL
same,concentration at 8 h,"female, po, 300 mg",2210 ng/mL
same,concentration at 10 h,"female, po, 300 mg",1980 ng/mL
same,concentration at 12 h,"female, po, 300 mg",1760 ng/mL
same,concentration at 18 h,"female, po, 300 mg",1690 ng/mL
same,concentration at 24 h,"female, po, 300 mg",1190 ng/mL
same,concentration at […],"female, po, 300 mg",0 ng/mL and 111 ng/mL and 317 ng/mL and 426 ng/mL
same,half-life,"female, po, 300 mg, t½ (Harmonic mean), single oral 300 mg DOV 21,947 HCl IR, N = 5",15 h
same,half-life,"female, po, 300 mg, t½, single oral 300 mg DOV 21,947 HCl IR, N = 5, arithmetic mean",15.5 h
same,AUC(0-t),"female, po, 450 mg",55300 ng·h/mL
same,Cmax,"female, po, 450 mg",3360 ng/mL
same,Tmax,"female, po, 450 mg",8.8 h
same,concentration at 0 h,"female, po, 450 mg",0 ng/mL
same,concentration at 0.5 h,"female, po, 450 mg",35.2 ng/mL
same,concentration at 1 h,"female, po, 450 mg",285 ng/mL
same,concentration at 2 h,"female, po, 450 mg",1030 ng/mL
